Patent US11279687B2, “Compounds and compositions for the inhibition of NAMPT” (Valo Health, Inc., priority 2010, dated 2022)
Like-named read-outs stand apart in the source and are kept apart here.

Experiments:
NAMPT = NAMPT (Homo sapiens (Human), UniProt P43490); assay: NAMPT biochemical inhibition assay (NMN quantified by mass spectrometry)
A2780 cells = assay: In-vitro cell proliferation assay (SRB), A2780 cells; assay type: cell-based; conditions: A2780 cells, 72 hours, SRB, read-out: A2780 IC50;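 also: viable cell number read as SRB absorbance, background from media-only wells subtracted, IC50 interpolated from percent inhibition at two bracketing compound concentrations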
[1] = NAMPT biochemical inhibition, read-out: Biochem IC50

Chain of NAMPT (P43490 whole entry): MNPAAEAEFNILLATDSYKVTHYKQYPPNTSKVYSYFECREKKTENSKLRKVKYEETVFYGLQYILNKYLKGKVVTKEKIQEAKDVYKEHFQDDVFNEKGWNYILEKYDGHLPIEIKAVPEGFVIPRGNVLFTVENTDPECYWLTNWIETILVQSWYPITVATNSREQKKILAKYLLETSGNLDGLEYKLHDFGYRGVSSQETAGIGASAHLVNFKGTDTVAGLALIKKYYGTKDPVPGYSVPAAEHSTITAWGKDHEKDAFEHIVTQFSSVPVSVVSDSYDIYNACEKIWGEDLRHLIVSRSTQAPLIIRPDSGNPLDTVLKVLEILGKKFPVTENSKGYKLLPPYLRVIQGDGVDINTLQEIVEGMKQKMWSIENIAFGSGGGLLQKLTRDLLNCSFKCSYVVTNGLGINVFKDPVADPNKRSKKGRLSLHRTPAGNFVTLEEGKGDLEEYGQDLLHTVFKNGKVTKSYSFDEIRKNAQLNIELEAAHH

IC50 (NAMPT; [1]) [nM]	IC50 (A2780 cells; Homo sapiens, A2780, 72 h) [nM]	SMILES	IC50 (A2780 cells) [nM]	IC50 (NAMPT) [nM]
4720	31.2	COc1ccc(Cl)cc1NS(=O)(=O)c1ccc(C(=O)NCCc2cccnc2)cc1 [4-[(5-chloro-2-methoxyphenyl)sulfamoyl]-N-[2-(pyridin-3-yl)ethyl]benzamide]	–	–
20.9	100 to 1000	CC(C)NC(=O)c1cc(S(=O)(=O)c2ccc(NC(=O)NCc3cccnc3)cc2)ccc1F [2-fluoro-N-(propan-2-yl)-5-[(4-{[(pyridin-3-ylmethyl)carbamoyl]amino}benzene)sulfonyl]benzamide]	–	–
3	493	O=C(NCc1cccnc1)Nc1ccc(S(=O)(=O)c2ccccc2F)cc1 [3-{4-[(2-fluorobenzene)sulfonyl]phenyl}-1-(pyridin-3-ylmethyl)urea]	–	–
7.6	100 to 1000	N#Cc1ccc(S(=O)(=O)c2ccc(NC(=O)NCc3cccnc3)cc2)cc1 [1-{4-[(4-cyanobenzene)sulfonyl]phenyl}-3-(pyridin-3-ylmethyl)urea]	–	–
8	> 30000	O=C(NCc1ccc(Cl)nc1)Nc1ccc(S(=O)(=O)N2CCCCC2)cc1 [3-[(6-chloropyridin-3-yl)methyl]-1-[4-(piperidine-1-sulfonyl)phenyl]urea]	–	–
3.8	100 to 1000	CCCOc1cccc(S(=O)(=O)c2ccc(NC(=O)NCc3cccnc3)cc2)c1 [3-{4-[(3-propoxybenzene)sulfonyl]phenyl}-1-(pyridin-3-ylmethyl)urea]	–	–
12.1	6.39	O=C(NCc1ccc2nccn2c1)c1ccc(S(=O)(=O)c2cccc(Cl)c2)cc1 [4-[(3-chlorobenzene)sulfonyl]-N-{imidazo[1,2-a]pyridin-6-ylmethyl}benzamide]	–	–
138	7.12	O=C(NCc1ccc2nccn2c1)c1ccc(S(=O)(=O)Nc2cccc(Cl)c2)cc1 [4-[(3-chlorophenyl)sulfamoyl]-N-{imidazo[1,2-a]pyridin-6-ylmethyl}benzamide]	–	–
19	1790	O=C(NCc1cccnc1)Nc1ccc(S(=O)(=O)n2cccc2)cc1 [1-(pyridin-3-ylmethyl)-3-[4-(1H-pyrrole-1-sulfonyl)phenyl]urea]	–	–
7.6	100 to 1000	CCS(=O)(=O)c1cccc(S(=O)(=O)c2ccc(NC(=O)NCc3cccnc3)cc2)c1 [3-(4-{[3-(ethanesulfonyl)benzene]sulfonyl]phenyl)-1-(pyridin-3-ylmethyl)urea]	–	–
1.8	14.7	O=C(NCc1cccnc1)Nc1ccc(S(=O)(=O)c2ccc(N3CCOCC3)cc2)cc1 [1-(4-{[4-(morpholin-4-yl)benzene]sulfonyl}phenyl)-3-(pyridin-3-ylmethyl)urea]	–	–
0.9	74	Cc1cccc(NS(=O)(=O)c2ccc(NC(=O)NCc3cccnc3)cc2)c1C [3-{4-[(2,3-dimethylphenyl)sulfamoyl]phenyl}-1-(pyridin-3-ylmethyl)urea]	–	–
1	206	Cc1ccc(S(=O)(=O)c2ccc(NC(=O)NCc3cccnc3)cc2)cc1F [3-{4-[(3-fluoro-4-methylbenzene)sulfonyl]phenyl}-1-(pyridin-3-ylmethyl)urea]	–	–
4	403	O=C(NCc1cccnc1)Nc1ccc(S(=O)(=O)c2cc(F)ccc2F)cc1 [3-{4-[(2,5-difluorobenzene)sulfonyl]phenyl}-1-(pyridin-3-ylmethyl)urea]	–	–
1.4	2.2	O=C(NCc1cccnc1)Nc1ccc(S(=O)(=O)c2cccc3cccnc23)cc1 [3-(pyridin-3-ylmethyl)-1-[4-(quinoline-8-sulfonyl)phenyl]urea]	–	–
1.4	8.3	O=C(NCc1cccnc1)Nc1ccc(S(=O)(=O)c2cncc3ccccc23)cc1 [1-[4-(isoquinoline-4-sulfonyl)phenyl]-3-(pyridin-3-ylmethyl)urea]	–	–
8.5	71.4	Nc1ccc(CNC(=O)Nc2ccc(S(=O)(=O)N3CCCCC3)cc2)cn1 [3-[(6-aminopyridin-3-yl)methyl]-1-[4-(piperidine-1-sulfonyl)phenyl]urea]	–	–
1.6	15.9	Cc1cc(C)n(-c2cccc(S(=O)(=O)c3ccc(NC(=O)NCc4cccnc4)cc3)c2)n1 [3-(4-{[3-(3,5-dimethyl-1H-pyrazol-1-yl)benzene]sulfonyl}phenyl)-1-(pyridin-3-ylmethyl)urea]	–	–
8.4	1000 to 10000	O=C(NCc1cccnc1)Nc1ccc(S(=O)(=O)NCc2ccccn2)cc1 [1-{4-[(pyridin-2-ylmethyl)sulfamoyl]phenyl}-3-(pyridin-3-ylmethyl)urea]	–	–
2	21	Cc1cc(-n2cccn2)ccc1S(=O)(=O)c1ccc(NC(=O)NCc2cccnc2)cc1 [3-(4-{[2-methyl-4-(1H-pyrazol-1-yl)benzene]sulfonyl}phenyl)-1-(pyridin-3-ylmethyl)urea]	–	–

IC50 (NAMPT; [1]) [nM]	IC50 (A2780 cells; Homo sapiens, A2780, 72 h) [nM]	SMILES	IC50 (A2780 cells) [nM]	IC50 (NAMPT) [nM]
1	35	Cc1ccc(Cl)cc1NS(=O)(=O)c1ccc(NC(=O)NCc2cccnc2)cc1 [3-{4-[(5-chloro-2-methylphenyl)sulfamoyl]phenyl}-1-(pyridin-3-ylmethyl)urea]	–	–
23	1000	O=C(NCc1cccnc1)Nc1ccc(S(=O)(=O)N2CCCCC2)cc1F [3-[2-fluoro-4-(piperidine-1-sulfonyl)phenyl]-1-(pyridin-3-ylmethyl)urea]	–	–
2	0.4	CCOc1ccccc1S(=O)(=O)c1ccc(NC(=O)NCc2cccnc2)cc1 [3-{4-[(2-ethoxybenzene)sulfonyl]phenyl}-1-(pyridin-3-ylmethyl)urea]	–	–
1.7	83.7	CCOc1cccc(S(=O)(=O)c2ccc(NC(=O)NCc3cccnc3)cc2)c1 [3-{4-[(3-ethoxybenzene)sulfonyl]phenyl}-1-(pyridin-3-ylmethyl)urea]	–	–
8	7	O=C(NCc1cccnc1)Nc1ccc(S(=O)(=O)Nc2cc(C(F)(F)F)ccc2N2CCOCC2)cc1 [3-(4-{[2-(morpholin-4-yl)-5-(trifluoromethyl)phenyl]sulfamoyl}phenyl)-1-(pyridin-3-ylmethyl)urea]	–	–
2	8	O=C(NCc1cccnc1)Nc1ccc(S(=O)(=O)c2ccccc2Oc2ccccc2)cc1 [1-{4-[(2-phenoxybenzene)sulfonyl]phenyl}-3-(pyridin-3-ylmethyl)urea]	–	–
6.6	100 to 1000	CS(=O)(=O)c1cccc(S(=O)(=O)c2ccc(NC(=O)NCc3cccnc3)cc2)c1 [3-{4-[(3-methanesulfonylbenzene)sulfonyl]phenyl}-1-(pyridin-3-ylmethyl)urea]	–	–
2.4	100 to 1000	COc1ccc(S(=O)(=O)c2ccc(NC(=O)NCc3cccnc3)cc2)cc1 [3-{4-[(4-methoxybenzene)sulfonyl]phenyl}-1-(pyridin-3-ylmethyl)urea]	–	–
2	70.8	CCc1cccc(S(=O)(=O)c2ccc(NC(=O)NCc3cccnc3)cc2)c1 [3-{4-[(3-ethylbenzene)sulfonyl]phenyl}-1-(pyridin-3-ylmethyl)urea]	–	–
2	79	COc1ccc(C)c(NS(=O)(=O)c2ccc(NC(=O)NCc3cccnc3)cc2)c1 [3-{4-[(5-methoxy-2-methylphenyl)sulfamoyl]phenyl}-1-(pyridin-3-ylmethyl)urea]	–	–
2	91	CS(=O)(=O)c1ccc(S(=O)(=O)c2ccc(NC(=O)NCc3cccnc3)cc2)cc1 [3-{4-[(4-methanesulfonylbenzene)sulfonyl]phenyl}-1-(pyridin-3-ylmethyl)urea]	–	–
1.4	97	CC(C)(C)c1ccc(NS(=O)(=O)c2ccc(NC(=O)NCc3cccnc3)cc2)c(Cl)c1 [3-{4-[(4-tert-butyl-2-chlorophenyl)sulfamoyl]phenyl}-1-(pyridin-3-ylmethyl)urea]	–	–
273	> 30000	O=C(NCc1cnccn1)Nc1ccc(S(=O)(=O)N2CCCCC2)cc1 [3-[4-(piperidine-1-sulfonyl)phenyl]-1-(pyrazin-2-ylmethyl)urea]	–	–
6	106	Cc1ccccc1N1CCN(S(=O)(=O)c2ccc(NC(=O)NCc3cccnc3)cc2)CC1 [3-{4-[4-(2-methylphenyl)piperazine-1-sulfonyl]phenyl}-1-(pyridin-3-ylmethyl)urea]	–	–
1	40	Cc1cc(C)cc(S(=O)(=O)c2ccc(NC(=O)NCc3cccnc3)cc2)c1 [3-{4-[(3,5-dimethylbenzene)sulfonyl]phenyl}-1-(pyridin-3-ylmethyl)urea]	–	–
5	128	O=C(NCc1cccnc1)Nc1ccc(S(=O)(=O)N2CCN(c3ncc(C(F)(F)F)cc3Cl)CC2)cc1 [3-(4-{4-[3-chloro-5-(trifluoromethyl)pyridin-2-yl]piperazine-1-sulfonyl}phenyl)-1-(pyridin-3-ylmethyl)urea]	–	–
4	827	O=C(NCc1cccnc1)Nc1ccc(S(=O)(=O)c2ccc(Cl)cc2Cl)cc1 [3-{4-[(2,4-dichlorobenzene)sulfonyl]phenyl}-1-(pyridin-3-ylmethyl)urea]	–	–
2.1	8.9	COc1c(C)cc(S(=O)(=O)c2ccc(NC(=O)NCc3cccnc3)cc2)cc1C [3-{4-[(4-methoxy-3,5-dimethylbenzene)sulfonyl]phenyl}-1-(pyridin-3-ylmethyl)urea]	–	–
1.9	100 to 1000	O=C(NCc1cccnc1)Nc1ccc(S(=O)(=O)c2cc(Cl)cc(Cl)c2)cc1 [3-{4-[(3,5-dichlorobenzene)sulfonyl]phenyl}-1-(pyridin-3-ylmethyl)urea]	–	–

SMILES	IC50 (NAMPT; [1]) [nM]	IC50 (A2780 cells; Homo sapiens, A2780, 72 h) [nM]	IC50 (A2780 cells) [nM]	IC50 (NAMPT) [nM]
CCN(CC)C(=O)c1ccccc1NS(=O)(=O)c1ccc(NC(=O)NCc2cccnc2)cc1 [N,N-diethyl-2-[(4-{[(pyridin-3-ylmethyl)carbamoyl]amino]benzene)sulfonamido]benzamide]	8	–	6	–
O=C(NCc1cccnc1)Nc1ccc(S(=O)(=O)N2C3CCCC2CC3)cc1 [1-(4-{8-azabicyclo[3.2.1]octane-8-sulfonyl}phenyl)-3-(pyridin-3-ylmethyl)urea]	–	64	–	4
